Experimental data reported in patent publication US10975078B2, “Fused indazole pyridone compounds as antivirals” (priority 2017, dated 2021).
pEC50: −log10 of the molar value.

These compounds were tested on HBsAg secretion, HepG2-Clone42 cells (Tet-inducible HBV-expressing, HBV ayw strain) (assay: HBsAg assay (HBsAg ELISA, secreted HBV sAg from HepG2-Clone42 cells)). Details: Hepatitis B virus, read-out: HBsAg (nM), EC50 = concentration at which HBsAg secretion was reduced 50% compared to DMSO control.
Type: cell-based
Description: HepG2-Clone42, a Tet-inducible HBV-expressing cell line with a stably integrated 1.3 mer copy of the HBV ayw strain, was generated based on the Tet-inducible HepAD38 cell line with slight modifications. Ladner S K, et al., Antimicrobial Agents and Chemotherapy. 41(8):1715-1720 (1997). HepG2-Clone42 cells were cultured in DMEM/F-12+Glutamax™ (Life Technologies, Carlsbad, Calif., USA), supplemented with 10% fetal bovine serum (Life Technologies), G-418 (Corning, Manassas, Va., USA) at a final concentration of 0.5 mg/mL, and 5 μg/mL Doxycycline (Sigma, St. Louis, Mo., USA) and maintained in 5% CO2 at 37° C.
HepG2-Clone42 cells were seeded into black clear-bottom 96-well plates at a concentration of 6.0×10^4 cells/well. 24 hours post-seeding, the cells were treated with 200 μl/well of media containing five-fold serial dilutions of compounds in DMSO. DMSO alone was used as the no drug control. The final DMSO concentration in all wells was 0.5%.
The HBsAg ELISA kit (Alpha Diagnostic International, San Antonio, Tex., USE, Catalog #4110) was used to determine the level (semi-quantitative) of secreted HBV sAg. The HBSAg ELISA assay was performed following the manufacturer's protocol as described.
Step 1. Pipet 100 μL each of compound or DMSO treated samples into HBsAg ELISA plates. Seal plates and incubate at room temp for 60 minutes.
Step 2. Aspirate samples and wash three times with Wash Buffer. Dispense 100 μL of antibody-HRP conjugate to each well. Incubate at room temp for 30 minutes.
Step 3. Aspirate samples and wash three times with Wash Buffer. Add 100 μL of TMB Substrate to all wells and incubate 15 minutes at room temp.
Step 4. Dispense 100 μL of Stop Solution to each well. Measure absorbance of ELISA plate at 450 nm.
Dose-response curves were generated and the EC50 value was defined as the compound concentration at which HBsAg secretion was reduced 50% compared to the DMSO control.
EC50 values were determined as follows:
Determine the percent of HBsAg secretion inhibition. Calculate the percent inhibition on of HBsAg secretion inhibition using the following equation: […]
where XC is the absorbance signal from compound-treated well; MB is average absorbance signal (background signal) for column 12 (no cells+HBsAg ELISA sample buffer) and MD is average absorbance signal from DMSO-treated wells. Then calculate EC50 values by non-linear regression using a four parameter curve logistic equation.
The curve fit model employed is XLFit Dose Response One Site Model 204: y=(A+((B−A)/(1+(10^((C−x)*D))))) where A is the minimum y value, B is the maximum y value, C is the log EC50 value, and D is the slope factor. In the following table+≥100 nM; 100 nM>++≥1 nM; 1 nM>+++

Structure (SMILES) | EC50 [nM]
CC(C)(C)C1Cn2nc3c(OCCC(F)(F)F)cccc3c2-c2cc(=O)c(C(=O)O)cn21 (racemic) [Example 2.40, 6-(tert-butyl)-2-oxo-10-(3,3,3-trifluoropropoxy)-6,7-dihydro-2H-pyrido[2′,1′:3,4]pyrazino[1,2-b]indazole-3-carboxylic Acid] | < 1
CC(C)(C)C1Cn2nc3c(OCCN4CCCC4=O)cccc3c2-c2cc(=O)c(C(=O)O)cn21 (racemic) [Example 2.20, 6-(tert-butyl)-2-oxo-10-(2-(2-oxopyrrolidin-1-yl)ethoxy)-6,7-dihydro-2H-pyrido[2′,1′:3,4]pyrazino[1,2-b]indazole-3-carboxylic Acid] | 1 to 100
CC(C)(C)C1Cn2nc3c(OCC4CCOCC4)cccc3c2-c2cc(=O)c(C(=O)O)cn21 (racemic) [Example 2.44, 6-(tert-butyl)-2-oxo-10-((tetrahydro-2H-pyran-4-yl)methoxy)-6,7-dihydro-2H-pyrido[2′,1′:3,4]pyrazino[1,2-b]indazole-3-carboxylic Acid] | 1 to 100
CC(C)(C)C1Cn2nc3c(OCCCOC(F)(F)F)cccc3c2-c2cc(=O)c(C(=O)O)cn21 (racemic) [Example 2.19, 6-(tert-butyl)-2-oxo-10-(3-(trifluoromethoxy)propoxy)-6,7-dihydro-2H-pyrido[2′,1′:3,4]pyrazino[1,2-b]indazole-3-carboxylic Acid] | < 1
CN(C)C(=O)COc1cccc2c3n(nc12)CC(C(C)(C)C)n1cc(C(=O)O)c(=O)cc1-3 (racemic) [Example 2.36, 6-(tert-butyl)-10-(2-(dimethylamino)-2-oxoethoxy)-2-oxo-6,7-dihydro-2H-pyrido[2′,1′:3,4]pyrazino[1,2-b]indazole-3-carboxylic Acid] | < 1
CC(C)(C)C1Cn2nc3c(OCCO)cccc3c2-c2cc(=O)c(C(=O)O)cn21 (racemic) [Example 2.18, 6-(tert-butyl)-10-(2-hydroxyethoxy)-2-oxo-6,7-dihydro-2H-pyrido[2′,1′:3,4]pyrazino[1,2-b]indazole-3-carboxylic Acid] | 1 to 100
CC(C)(C)C1Cn2nc3c(OCC4COCCO4)cccc3c2-c2cc(=O)c(C(=O)O)cn21 (racemic) [Example 2.22, 10-((1,4-dioxan-2-yl)methoxy)-6-(tert-butyl)-2-oxo-6,7-dihydro-2H-pyrido[2′,1′:3,4]pyrazino[1,2-b]indazole-3-carboxylic Acid] | 1 to 100
CC(C)(C)C1Cn2nc3c(OC4CCOC4)cccc3c2-c2cc(=O)c(C(=O)O)cn21 (racemic) [Example 2.37, 6-(tert-butyl)-2-oxo-10-((tetrahydrofuran-3-yl)oxy)-6,7-dihydro-2H-pyrido[2′,1′:3,4]pyrazino[1,2-b]indazole-3-carboxylic Acid] | 1 to 100
CN(C)CCCOc1cccc2c3n(nc12)CC(C(C)(C)C)n1cc(C(=O)O)c(=O)cc1-3 (racemic) [Example 2.43, 6-(tert-butyl)-10-(3-(dimethylamino)propoxy)-2-oxo-6,7-dihydro-2H-pyrido[2′,1′:3,4]pyrazino[1,2-b]indazole-3-carboxylic Acid] | > 100
CC(C)(C)C1Cn2nc3c(OCC4(C#N)CC4)cccc3c2-c2cc(=O)c(C(=O)O)cn21 (racemic) [Example 2.46, 6-(tert-butyl)-10-((1-cyanocyclopropyl)methoxy)-2-oxo-6,7-dihydro-2H-pyrido[2′,1′:3,4]pyrazino[1,2-b]indazole-3-carboxylic Acid] | 1 to 100
COc1ccc2nn3c(c2c1)-c1cc(=O)c(C(=O)O)cn1C(C(C)(C)C)C3 (single isomer, unassigned) [Example 1.3-II, 6-(tert-butyl)-12-methoxy-2-oxo-6,7-dihydro-2H-pyrido[2′,1′:3,4]pyrazino[1,2-b]indazole-3-carboxylic acid] | 1 to 100
CC(C)OCCOc1cccc2c3n(nc12)CC(C(C)(C)C)n1cc(C(=O)O)c(=O)cc1-3 (racemic) [Example 2.15, 6-(tert-butyl)-10-(2-isopropoxyethoxy)-2-oxo-6,7-dihydro-2H-pyrido[2′,1′:3,4]pyrazino[1,2-b]indazole-3-carboxylic Acid] | < 1
CC(C)(C)C1Cn2nc3c(OCC4CNC4)cccc3c2-c2cc(=O)c(C(=O)O)cn21 (racemic) [Example 2.32, 10-(azetidin-3-ylmethoxy)-6-(tert-butyl)-2-oxo-6,7-dihydro-2H-pyrido[2′,1′:3,4]pyrazino[1,2-b]indazole-3-carboxylic Acid] | > 100
CC(C)COc1cccc2c3n(nc12)CC(C(C)(C)C)n1cc(C(=O)O)c(=O)cc1-3 (racemic) [Example 2.16, 6-(tert-butyl)-10-isobutoxy-2-oxo-6,7-dihydro-2H-pyrido[2′,1′:3,4]pyrazino[1,2-b]indazole-3-carboxylic Acid] | < 1
COCCCOc1cccc2c3n(nc12)CC(C(C)(C)C)n1cc(C(=O)O)c(=O)cc1-3 (single isomer, unassigned) [Example 2.1-I, 6-(tert-butyl)-10-(3-methoxypropoxy)-2-oxo-6,7-dihydro-2H-pyrido[2′,1′:3,4]pyrazino[1,2-b]indazole-3-carboxylic Acid] | < 1
CCCOc1cccc2c3n(nc12)CC(C(C)(C)C)n1cc(C(=O)O)c(=O)cc1-3 (racemic) [Example 2.11, 6-(tert-butyl)-2-oxo-10-propoxy-6,7-dihydro-2H-pyrido[2′,1′:3,4]pyrazino[1,2-b]indazole-3-carboxylic Acid] | < 1
COCC1(COc2cccc3c4n(nc23)CC(C(C)(C)C)n2cc(C(=O)O)c(=O)cc2-4)CCC1 (centres unmarked) [Example 2.4, 6-(tert-butyl)-10-((1-(methoxymethyl)cyclobutyl)methoxy)-2-oxo-6,7-dihydro-2H-pyrido[2′,1′:3,4]pyrazino[1,2-b]indazole-3-carboxylic Acid] | > 100
COCCOc1cccc2c3n(nc12)C1CCC(C)(C)C1n1cc(C(=O)O)c(=O)cc1-3 (single isomer, unassigned) [Example 6.2-I, 12-(2-methoxyethoxy)-3,3-dimethyl-7-oxo-2,3,3a,14a-tetrahydro-1H,7H-cyclopenta[5,6]pyrido[2′,1′:3,4]pyrazino[1,2-b]indazole-6-carboxylic Acid] | 1 to 100
CCC(C)Oc1cccc2c3n(nc12)CC(C(C)(C)C)n1cc(C(=O)O)c(=O)cc1-3 (racemic) [Example 2.7, 10-(sec-butoxy)-6-(tert-butyl)-2-oxo-6,7-dihydro-2H-pyrido[2′,1′:3,4]pyrazino[1,2-b]indazole-3-carboxylic acid] | < 1

Same assay, conditions: read-out: HBsAg, EC50 = concentration at which HBsAg secretion was reduced 50% compared to DMSO control

Structure (SMILES) | pEC50
COc1cccc2c3n(nc12)C1CCC(C)(C)C1n1cc(C(=O)O)c(=O)cc1-3 (single isomer, unassigned) [Example 5.1-I, 12-methoxy-3,3-dimethyl-7-oxo-2,3,3a,14a-tetrahydro-1H,7H-cyclopenta[5,6]pyrido[2′,1′:3,4]pyrazino[1,2-b]indazole-6-carboxylic Acid] | > 9.00
COCCCOc1cccc2c3n(nc12)C1CCC(C)(C)C1n1cc(C(=O)O)c(=O)cc1-3 (single isomer, unassigned) [Example 6.1-II, 12-(3-methoxypropoxy)-3,3-dimethyl-7-oxo-2,3,3a,14a-tetrahydro-1H,7H-cyclopenta[5,6]pyrido[2′,1′:3,4]pyrazino[1,2-b]indazole-6-carboxylic Acid] | > 9.00
COc1cccc2c3n(nc12)C1CCC(C)(C)C1n1cc(C(=O)O)c(=O)cc1-3 (single isomer, unassigned) [Example 5.1-II, 12-methoxy-3,3-dimethyl-7-oxo-2,3,3a,14a-tetrahydro-1H,7H-cyclopenta[5,6]pyrido[2′,1′:3,4]pyrazino[1,2-b]indazole-6-carboxylic Acid] | < 7.00
CC(C)(C)C1Cn2nc3ccccc3c2-c2cc(=O)c(C(=O)O)cn21 (single isomer, unassigned) [Example 1.5-I, 6-(tert-butyl)-2-oxo-6,7-dihydro-2H-pyrido[2′,1′:3,4]pyrazino[1,2-b]indazole-3-carboxylic acid] | 7.00 to 9.00
